According to patent US20230270788A1, “COMPOSITION FOR AUGMENTING STEMNESS AND USE THEREOF” (GENECHEM INC., priority 2019, published 2023):

Assays:
[1] = tested on: hBMSCs; test: Stemness markers OCT4, SOX2, NANOG by qRT-PCR and western blot, hBMSCs; format: cell-based, human; settings: 100 μM, compared to stem cells cultured without a sialyllactose, FIG. 4
Description: (§1) In Example 1, human bone marrow-derived mesenchymal stem cells (hBMSCs), human adipose tissue-derived mesenchymal stem cells (hATMSCs), human cord blood-derived mesenchymal stem cells (hCBMSCs), and induced pluripotent stem cells-derived hepatic organoid were used in this experiment. Dulbecco's Modified Eagle's Mediums (DMEM Low Glucose, available from HyClone in Logan, Utah, USA) including 10% fetal bovine serum (available from T&I in Gangwon, Korea), 1% antibiotics (penicillin/streptomycin, available from Gibco in Grand Island, NY, USA) were used as culture mediums of hBMSCs, hATMSCs, and hCBMSCs. After treating 3′-sialyllactose (available from GeneChem), 6′-sialyllactose (available from GeneChem), and a mixture of 3′-sialyllactose and 6′-sialyllactose, each in an amount of 100 μM, the culturing solutions were replaced every 3 days. The negative control was performed in the same manner after adding triple distilled water into the culturing solution. Also, a Hepatocyte Culture Medium (available from Lonza) including an endothelial cell growth medium-2 (available from Lonza), 2.5% FBS, 100 nM dexamethasone (available from Sigma-Aldrich), 20 ng/ml OSM (available from R&D system), and 10 ng/ml HGF (available from PeproTech) was used as the culturing solution of hepatic organoid, and the culturing solution was replaced every 3 days.
(§2) In Example 3, influence of a sialyloligosaccharide on stemness of stem cells was to be confirmed. Particularly, after treating mesenchymal stem cells with each of 3′-sialyllactose, 6′-sialyllactose, and a combination thereof, mRNAs of OCT4, SOX2, and NANOG, which are stem cell markers of the mesenchymal stem cells, and changes in expression at protein levels were each measured by quantitative real-time reverse transcription-polymerase chain reaction (qRT-PCR) and western blot. In particular, total RNAs were isolated from the cells collected after culturing the cells in the same manner as in Example 1, and change in mRNA expression of the isolated total RNAs was confirmed by qRT-PCR using OCT4 primers available from Bioneer (Daejeon, Korea), SOX2 primers available from Bioneer (P200205), and NANOG primers.

[2] = tested on: induced pluripotent stem cells-derived hepatic organoids; test: Metabolic maturity of hepatic organoids, mRNA expression ratios by qRT-PCR; format: cell-based; settings: 6 days; for ratios of ALB/AFP: FIG. 12
Description: as §1
In Example 8, influence of a sialyloligosaccharide on maturity of induced pluripotent stem cells-derived hepatic organoids was to be confirmed. Particularly, after subculturing the hepatic organoids, the organoids were stabilized in a hepatic medium (HM) for a day and treated with 3′-sialyllactose and 6′-sialyllactose in concentrations of 0, 0.1, 1, 10, and 100 μM for 6 days, and then total RNAs were isolated from the hepatic organoids on the 7th day. The changes in expressions at mRNA level of CYP3A4, CYP2A7, ALB, and AFP, which are markers of metabolic maturity, were each measured by qRT-PCR, and the expression ratios were compared to confirm the metabolic maturity.

[3] = tested on: hCBMSCs; test: Stemness markers OCT4, SOX2, NANOG by qRT-PCR and western blot, hCBMSCs; format: cell-based, human; settings: 100 μM, compared to stem cells cultured without a sialyllactose, FIG. 6
Description: as §1, §2

[4] = tested on: induced pluripotent stem cells-derived hepatic organoids; test: Cell viability of hepatic organoids by CCK analysis; format: cell-based; settings: concentrations of 0.1, 1, 10, and 100 μM for 6 days, 7th day, FIG. 10
Description: (§3) In Example 1, human bone marrow-derived mesenchymal stem cells (hBMSCs), human adipose tissue-derived mesenchymal stem cells (hATMSCs), human cord blood-derived mesenchymal stem cells (hCBMSCs), and induced pluripotent stem cells-derived hepatic organoid were used in this experiment. Dulbecco's Modified Eagle's Mediums (DMEM Low Glucose, available from HyClone in Logan, Utah, USA) including 10% fetal bovine serum (available from T&I in Gangwon, Korea), 1% antibiotics (penicillin/streptomycin, available from Gibco in Grand Island, NY, USA) were used as culture mediums of hBMSCs, hATMSCs, and hCBMSCs. After treating 3′-sialyllactose (available from GeneChem), 6′-sialyllactose (available from GeneChem), and a mixture of 3′-sialyllactose and 6′-sialyllactose, each in an amount of 100 μM, the culturing solutions were replaced every 3 days. The negative control was performed in the same manner after adding triple distilled water into the culturing solution. Also, a Hepatocyte Culture Medium (available from Lonza) including an endothelial cell growth medium-2 (available from Lonza), 2.5% FBS, 100 nM dexamethasone (available from Sigma-Aldrich), 20 ng/ml OSM (available from R&D system), and 10 ng/ml HGF (available from PeproTech) was used as the culturing solution of hepatic organoid, and the culturing solution was replaced every 3 days. […]

[5] = tested on: human cord blood-derived mesenchymal stem cells (hCBMSCs); test: Cell viability by CCK-8 analysis, hCBMSCs; format: cell-based; settings: FIG. 3; for influence on cell viability: all the concentrations (50, 100, 200, 400 μM); for cell viability: concentration of 100 μM
Method: (§4) In Example 2, influence of a sialyloligosaccharide on cell viability of stem cells was to be confirmed. Particularly, 3′-sialyllactose, 6′-sialyllactose, and a combination thereof were each treated on the subcultured stem cells in a concentration of 0, 50, 100, 200, or 400 μM, and the cell viability per concentration was verified by cell counting kit-8 (CCK-8) analysis. In particular, of hBMSCs, hATMSCs, and hCBMSCs were seeded in a 96-well plate. Then, the stem cells were treated with 3′-sialyllactose (GeneChem), 6′-sialyllactose (GeneChem), and a mixture of 3′-sialyllactose and 6′-sialyllactose in a concentration of 0, 50, 100, 200, or 400 μM and cultured in a DMEM low glucose medium (HyClone) including 1% antibiotics free of fetal bovine serum (T&I). Next, the viabilities of the cultured cells were confirmed by CCK-8 (Dojindo Laboratories, Kumamoto, Japan) analysis.

[6] = tested on: human adipose tissue-derived mesenchymal stem cells (hATMSCs); test: Cell viability by CCK-8 analysis, hATMSCs; format: cell-based; settings: FIG. 2; for influence on cell viability: all the concentrations (50, 100, 200, 400 μM); for cell viability: concentration of 100 μM
Method: as §4

[7] = tested on: hATMSCs; test: Stemness markers OCT4, SOX2, NANOG by qRT-PCR and western blot, hATMSCs; format: cell-based, human; settings: 100 μM, compared to stem cells cultured without a sialyllactose, FIG. 5
Description: as §1, §2

[8] = tested on: human bone marrow-derived mesenchymal stem cells (hBMSCs); test: Cell viability by CCK-8 analysis, hBMSCs; format: cell-based; settings: FIG. 1; for influence on cell viability: all the concentrations (50, 100, 200, 400 μM); for cell viability: concentration of 100 μM
Method: as §4

[9] = tested on: hBMSCs; test: Cell viability per subculturing passage by CCK-8; format: cell-based, human; settings: hBMSCs subcultured for 4, 7, 10, and 12 passages, 100 μM, FIG. 9
Method: In Example 6, influence of a sialyloligosaccharide on viability of stem cells according to cell subculturing passages was to be confirmed. Particularly, hBMSCs subcultured for 4, 7, 10, and 12 passages were treated with 3′-sialyllactose in a concentration of 100 μM, and the cell viability was confirmed by cell counting kit-8 assay (CCK-8) analysis. In particular, the hBMSCs were seeded in a 96-well plate. Then, the stem cells were treated with 3′-sialyllactose (GeneChem) in a concentration of 100 μM and cultured in a DMEM low glucose medium (HyClone) including 1% antibiotics free of fetal bovine serum (T&I). Viabilities of the cultured cells were confirmed by the CCK-8 analysis.

[10] = tested on: hBMSCs; test: Cell senescence factors p16 and p53 by qRT-PCR and Western Blot after subculturing; format: cell-based, human; settings: hBMSCs subcultured, 100 μM, versus without treatment, FIG. 7
Description: as §3, with “solution.” for “solution. Also, a Hepatocyte Culture Medium (available from Lonza) including an endothelial cell growth medium-2 (available from Lonza), 2.5% FBS, 100 nM dexamethasone (available from Sigma-Aldrich), 20 ng/ml OSM (available from R&D system), and 10 ng/ml HGF (available from PeproTech) was used as the culturing solution of hepatic organoid, and the culturing solution was replaced every 3 days.”
In Example 4, influence of a sialyloligosaccharide on senescence of stem cells was to be confirmed. Particularly, after treating the hBMSC stem cells with 3′-sialyllactose, changes in expression at mRNA and protein levels of p16 and p53, which are cell senescence factors after subculturing were each measured by qRT-PCT and Western Blot. […]

[11] = tested on: hBMSCs; test: Proliferation genes CCNA2 and CDK2 expression by qRT-PCR; format: cell-based, human; settings: hBMSCs having low proliferation ability, 100 μM, mRNA, FIG. 8
Description: as §3

[12] = tested on: hBMSCs; test: Senescence-associated beta-galactosidase (SA-β-gal) staining; format: cell-based, human; settings: hBMSCs of 10 passages, 100 μM, versus without treatment, FIG. 7C
Method: Also, in order to confirm a degree of senescence of the stem cells after being treated with 3′-sialyllactose (GeneChem), senescence-associated beta-galactosidase staining was performed on hBMSCs of 10 passages, treated with 100 μM of 3′-sialyllactose. In particular, after fixing the cells in formalin, the resultant washed with PBS, and 1 mg/mL of a β-gal staining solution X-Gal, 40 mM of a citric acid-sodium phosphate buffer solution, 150 mM of NaCl, 2 mM of MgCl2, 5 mM of potassium ferrocyanide, and 5 mM of potassium ferricyanide (pH 6.0, available from Sigma-Aldrich, St. Louis, USA) were add to the resultant and reacted at 37° C. Then, degrees of senescence activity of the aged cells (blue, positive) and cells not showing activity of senescence (negative) were confirmed using Eclipse TS100 (available from Nikon USA, Melville, N.Y., USA).

SMILES	expression at mRNA and protein levels of NANOG [1]	expression at mRNA and protein levels of OCT4 [1]	expression at mRNA and protein levels of SOX2 [1]	expression at mRNA and protein levels of NANOG [3]	expression at mRNA and protein levels of OCT4 [3]	expression at mRNA and protein levels of SOX2 [3]	cell viability of hepatic organoids [4]	influence on cell viability [5]	cell viability [5]	influence on cell viability [6]	cell viability [6]	expression at mRNA and protein levels of NANOG [7]	expression at mRNA and protein levels of OCT4 [7]	expression at mRNA and protein levels of SOX2 [7]	influence on cell viability [8]	cell viability [8]	other results
CC(=O)N[C@H]1[C@H]([C@H](O)[C@H](O)CO)O[C@@](OC[C@H]2O[C@@H](O[C@H]3[C@H](O)[C@@H](O)[C@H](O)O[C@@H]3CO)[C@H](O)[C@@H](O)[C@H]2O)(C(=O)O)C[C@@H]1O [6′-sialyllactose]	significantly increased	significantly increased	significantly increased	significantly increased	significantly increased	significantly increased	significantly increased	did not negatively influence the cell viability	increased significantly	did not negatively influence the cell viability	increased significantly	significantly increased	significantly increased	significantly increased	did not negatively influence the cell viability	increased significantly	ratios of ALB/AFP ([2]; concentrations of 0.1 and 100 μM): significantly increased
CC(=O)N[C@H]1[C@H]([C@H](O)[C@H](O)CO)O[C@@](O[C@H]2[C@@H](O)[C@@H](CO)O[C@@H](O[C@H]3[C@H](O)[C@@H](O)C(O)O[C@@H]3CO)[C@@H]2O)(C(=O)O)C[C@@H]1O (some centres unmarked) [3′-sialyllactose]	significantly increased	significantly increased	significantly increased	significantly increased	significantly increased	significantly increased	significantly increased	did not negatively influence the cell viability	increased significantly	did not negatively influence the cell viability	increased significantly	significantly increased	significantly increased	significantly increased	did not negatively influence the cell viability	increased significantly	cell viability [9]: significantly increased; expression at mRNA and protein levels of p16 [10]: very low expression; expression at mRNA and protein levels of p53 [10]: very low expression; ratios of ALB/AFP ([2]; concentrations of 1, 10, and 100 μM): significantly increased; ratios of CYP3A4/CYP3A7 ([2]; concentrations of 1 and 10 μM, FIG. 11): significantly increased; expression of CCNA2 [11]: significantly increased; expression of CDK2 [11]: significantly increased; SA-β-gal activity [12]: low SA-β-gal activity
